Measured values published in article PMC9572083, “Hybrids of 1,4-Quinone with Quinoline Derivatives: Synthesis, Biological Activity, and Molecular Docking with DT-Diaphorase (NQO1)” (Molecules, 2022).

Tests used:
[1] = target: T1, NQO1 (DT-diaphorase, EC 1.6.5.5, human recombinant) (Homo sapiens, UniProt P15559); test: NQO1 substrate NADPH recycling enzymatic assay; format: biochemical; details: compound 10 µmol/L, pH 7.4, 25 °C, absorbance at 340 nm
T1 construct: purchased Sigma-Aldrich
Procedure: The interaction between 1,4-quinone moiety of hybrid and NQO1 protein leads to reduction in quinone to hydroquinone and production of reactive oxide form (ROS). According to a literature method, the ability of hybrids 11–14 and streptonigrin (ST) to be a substrate for NQO1 was examined by measuring the oxidation of NADPH to NADP^+ [29, 32].
Compounds 11–14 (10 µmol/L) were tested as NQO1 substrates using the NADPH recycling assay according to the literature method. The recombinant NQO1 (DT-diaphorase, EC 1.6.5.5, human recombinant, Sigma-Aldrich) was used, and the oxidation of NADPH to NADP^+ was measured at the absorption wavelength of 340 nm on the BioTek 800TS microplate reader (BioKom, Janki, Poland). Compounds were dissolved in dimethyl sulfoxide (2 µL) and added to the 96-well plate. The NQO1 protein (1.4 µg/mL) in 50 mmol/L potassium phosphate buffer (pH = 7.4) was added to each well (198 µL) (Nunc Thermo Fisher Scientific, Waltham, MA, USA). Once the 96-well plate was filled with the assay solutions, except the NADPH solution, it was placed into the instrument and left to sit for 5 min before starting the measurements. The enzymatic reaction was initiated by automatically dispensing the NADPH solution into the wells, and data were recorded at 10 s intervals for 5 min at 25 °C. The linear part of the absorbance vs. time graphs (the first 20 s to 1 min) was fitted, and the slopes were calculated. NADPH oxidation rates were compared with reactions lacking the tested compound. Initial velocities were calculated, and data were expressed as µmol NADPH/µmol NQO1/min. All reactions were carried out at least in triplicate.

[2] = test system: MCF-7 cells; test: Cytotoxic activity, WST-1 assay, breast cancer MCF-7; format: cell-based, human; details: for SI (IC50 HFF-1/IC50 cancer line) MCF-7: HFF-1 vs MCF-7; for IC50: Homo sapiens, MCF7, breast cancer MCF-7, 72 h, WST-1
Excerpt: (§1) Anticancer activity of compounds 11–14 was designated against following human cancer cell lines: melanoma (Colo-829), ovarian cancer (SK-OV-3), breast cancer (MDA-MB-231, T47D and MCF-7), lung cancer (A549) and normal fibroblasts (HFF-1). As a reference substance, the doxorubicin was used. The results are presented in Table 1 as IC50, where IC50 means the concentration of tested compounds (µM) causing the growth inhibition of 50% for given tumor cells. The negative value (Neg.) means that the IC50 is higher than 30 µM. Selectivity index (SI) as the ratio of the IC50 for normal fibroblast (HFF-1) to IC50 of the corresponding cell line, is presented in Table S2.
(§2) Compounds 7–14 and doxorubicin were tested for cytotoxic activity in vitro against panel of human cancer cell lines: melanoma (Colo-829, ATCC, Rockville, MD, USA), ovarian cancer (SK-OV-3, ATCC, Rockville, MD, USA), breast cancer (T47D, MCF-7, and MDA-MB-231, ATCC, Rockville, MD, USA) and lung cancer (A549, ATCC, Rockville, MD, USA). The cultured cells were kept at 37 °C and 5% CO2. The cells were seeded (5 × 10^4 cells/well/[…] DMEM supplemented with 10% FCS and streptomycin/penicillin) using 96-well plates (Nunc Thermo Fisher Scientific, Waltham, MA, USA). The tested compounds 7–14 with the concentration of 1–100 µg/mL DMSO were inducted with the cancer cells for 72 h. The WST-1-formazan (proliferation reagent WST-1 assay, Roche Diagnostics, Mannheim, Germany) was detected using a microplate reader at 450 nm. Results were expressed as a mean value of at least three independent experiments performed in triplicate.

[3] = test system: HFF-1 cells; test: Cytotoxic activity, WST-1 assay, normal fibroblasts HFF-1; format: cell-based; details: Homo sapiens, normal fibroblasts HFF-1, 72 h
Excerpt: as §1, §2

[4] = test system: Colo-829 cells; test: Cytotoxic activity, WST-1 assay, melanoma Colo-829; format: cell-based, human; details: for SI (IC50 HFF-1/IC50 cancer line) Colo-829: HFF-1 vs Colo-829; for IC50: Homo sapiens, melanoma Colo-829, 72 h, WST-1
Excerpt: as §1, §2

[5] = test system: SK-OV-3 cells; test: Cytotoxic activity, WST-1 assay, ovarian cancer SK-OV-3; format: cell-based, human; details: for SI (IC50 HFF-1/IC50 cancer line) SK-OV-3: HFF-1 vs SK-OV-3; for IC50: Homo sapiens, ovarian cancer SK-OV-3, 72 h, WST-1
Excerpt: as §1, §2

[6] = test system: T47D cells; test: Cytotoxic activity, WST-1 assay, breast cancer T47D; format: cell-based, human; details: for SI (IC50 HFF-1/IC50 cancer line) T47D: HFF-1 vs T47D; for IC50: Homo sapiens, breast cancer T47D, 72 h, WST-1
Excerpt: as §1, §2

[7] = test system: MDA-MB-231 cells; test: Cytotoxic activity, WST-1 assay, breast cancer MDA-MB-231; format: cell-based, human; details: for SI (IC50 HFF-1/IC50 cancer line) MDA-MB-231: HFF-1 vs MDA-MB-231; for IC50: Homo sapiens, breast cancer MDA-MB-231, 72 h, WST-1
Excerpt: as §1, §2

[8] = test system: A549 cells; test: Cytotoxic activity, WST-1 assay, lung cancer A549; format: cell-based, human; details: for SI (IC50 HFF-1/IC50 cancer line) A549: HFF-1 vs A549; for IC50: Homo sapiens, lung cancer A549, 72 h, WST-1
Excerpt: as §1, §2

T1 sequence (P15559 whole entry): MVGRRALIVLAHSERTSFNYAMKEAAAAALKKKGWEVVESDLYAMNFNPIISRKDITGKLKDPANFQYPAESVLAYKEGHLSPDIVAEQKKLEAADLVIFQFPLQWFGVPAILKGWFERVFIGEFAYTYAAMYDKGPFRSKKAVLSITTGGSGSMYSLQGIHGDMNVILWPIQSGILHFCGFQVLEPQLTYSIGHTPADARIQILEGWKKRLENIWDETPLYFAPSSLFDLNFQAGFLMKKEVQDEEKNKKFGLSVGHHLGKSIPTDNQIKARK

| SMILES | NQO1 activity (enzymatic conversion rate) [1] | SI (IC50 HFF-1/IC50 cancer line) MCF-7 [2] | IC50 [2] | IC50 [3] | SI (IC50 HFF-1/IC50 cancer line) Colo-829 [4] | IC50 [4] | SI (IC50 HFF-1/IC50 cancer line) SK-OV-3 [5] | IC50 [5] | melting point | SI (IC50 HFF-1/IC50 cancer line) T47D [6] | IC50 [6] | SI (IC50 HFF-1/IC50 cancer line) MDA-MB-231 [7] | IC50 [7] | SI (IC50 HFF-1/IC50 cancer line) A549 [8] | IC50 [8] |
| --- | --- | --- | --- | --- | --- | --- | --- | --- | --- | --- | --- | --- | --- | --- | --- |
| Cc1ccc2c(n1)C(=O)C(Oc1cccc3cccnc13)=C(Cl)C2=O [Compound 12a, 6-chloro-2-methyl-7-(quinolin-8-yloxy)quinoline-5,8-dione] | 1505 ± 54 µmol NADPH/µmol NQO1/min | 8.30 | 2.09 ± 0.02 µM | 17.3 ± 0.89 µM | 11.41 | 1.52 ± 0.35 µM | 346.80 | 0.05 ± 0.02 µM | 115 to 117 °C | 10.91 | 1.59 ± 0.15 µM | 8.80 | 1.97 ± 0.15 µM | 20.40 | 0.85 ± 0.04 µM |
| O=C1C(Cl)=C(Oc2cccc3ccc(N4CCOCC4)nc23)C(=O)c2cnccc21 [Compound 13f, 6-chloro-7-{[2-(morpholin-4-yl)quinolin-8-yl]oxy}isoquinoline-5,8-dione] | 143 ± 26 µmol NADPH/µmol NQO1/min | 17.85 | 1.03 ± 0.19 µM | 18.4 ± 0.35 µM | 8.76 | 2.1 ± 0.06 µM | 14.95 | 1.23 ± 0.08 µM | – | 8.55 | 2.15 ± 0.06 µM | 141.46 | 0.13 ± 0.05 µM | 15.07 | 1.22 ± 0.08 µM |
| O=C1C(Cl)=C(Oc2cccc3ccc(N4CCOCC4)nc23)C(=O)c2ncccc21 [Compound 11f, 6-chloro-7-{[2-(morpholin-4-yl)quinolin-8-yl]oxy}quinoline-5,8-dione] | 113 ± 19 µmol NADPH/µmol NQO1/min | 1.58 | 16.21 ± 0.12 µM | 25.64 ± 0.19 µM | 1.83 | 14 ± 1.16 µM | 2.35 | 10.9 ± 0.48 µM | – | 1.38 | 18.6 ± 0.62 µM | 1.86 | 13.8 ± 1.09 µM | 2.03 | 12.6 ± 0.82 µM |
| O=C1C(Cl)=C(Oc2cccc3ccc(N4CCCC4)nc23)C(=O)c2ccccc21 [Compound 14e, 2-chloro-3-{[2-(pyrrolidin-1-yl)quinolin-8-yl]oxy}naphthalene-1,4-dione] | 354 ± 22 µmol NADPH/µmol NQO1/min | 0.78 | 24.05 ± 0.21 µM | 18.7 ± 1.36 µM | 0.85 | 22 ± 0.6 µM | 1.17 | 15.9 ± 0.22 µM | – | – | > 30 µM | 2.43 | 7.66 ± 1.12 µM | 0.84 | 22.1 ± 0.89 µM |
| Cc1ccc2c(n1)C(=O)C(Oc1cccc3ccc(N4CCOCC4)nc13)=C(Cl)C2=O [Compound 12f, 6-chloro-2-methyl-7-{[2-(morpholin-4-yl)quinolin-8-yl]oxy}quinoline-5,8-dione] | 210 ± 20 µmol NADPH/µmol NQO1/min | 1.41 | 14.1 ± 0.67 µM | 19.9 ± 0.93 µM | 1.49 | 13.3 ± 0.21 µM | 1.48 | 13.5 ± 0.21 µM | – | 1.15 | 17.3 ± 0.26 µM | 1.95 | 10.2 ± 0.28 µM | 1.72 | 11.6 ± 0.72 µM |
